{"source": "patent US20140322324A1", "about": "“Composition For The Treatment Of Bacterial Infections” (priority 2011, published 2014)", "origin": "cited, not measured here", "test_system": "Staphylococcus aureus (ATCC #14154 and #14775)", "conditions": "two strains of Staphylococcus aureus (ATCC #14154 and #14775); for the combination: concentration of each", "data": [{"smiles": "CCCCCCCCCCCC(=O)OCC(O)CO", "note": "(stereo not shown) [monolaurin]", "values": [{"measurement": "bactericidal concentration in culture", "value": "mirrored origanum oil"}]}]}
